Results taken from PMC9289672, “Optimization of Antibacterial Activity in Tibetan Swine α-Helix Peptide TP by Site-Directed Mutagenesis” (Frontiers in Microbiology, 2022).
Where no end group is shown, it is not given here.

Assays:
[1] = tested on: Enterococcus faecalis ATCC 29212
In short: (§1)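 Exponential-phase bacteria in MHB were diluted to 2 × 10^5 CFU/ml and mixed with an equal volume of peptide, giving final peptide concentrations of 1 to 128 μm. Plates were incubated at 37°C for 18–24 h, and growth was read as OD at 492 nm across three independent assays run in duplicate.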

[2] = tested on: Escherichia coli ATCC 25922
In short: as §1

Escherichia coli UB1005 = conditions: MHB, bacteria diluted to 2 × 10^5 CFU/ml, peptide 1-128 μm, 37°C 18-24 h, OD 492 nm; three independent assays, two in parallel
In short: as §1

[3] = tested on: Methicillin-resistant Staphylococcus aureus (MRSA) 43300; conditions: Methicillin-resistant 43300
In short: as §1

[4] = tested on: Pseudomonas aeruginosa ATCC 27853
In short: as §1

[5] = tested on: Pseudomonas aeruginosa PAO1
In short: as §1

[6] = tested on: Salmonella typhimurium ATCC 14028
In short: as §1

[7] = tested on: Salmonella typhimurium C7731; conditions: MHB, bacteria diluted to 2 × 10^5 CFU/ml, peptide 1-128 μm, 37°C 18-24 h, OD 492 nm; three independent assays, two in parallel
In short: as §1

[8] = tested on: Staphylococcus aureus ATCC 25923
In short: as §1

[9] = tested on: Staphylococcus aureus ATCC 29213
In short: as §1

[10] = tested on: Staphylococcus epidermidis ATCC 12228
In short: as §1

Gram-negative bacteria = test: Geometric mean of MIC and therapeutic index; format: cell-based; conditions: MHC/GM; 128 μm used when 50% hemolysis not observed at 128 μm
In short: (§2)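 Broth microdilution in MHB with exponential-phase bacteria diluted to 2 × 10^5 CFU/ml, mixed 1:1 with peptide (final 1–128 μm). Plates were incubated 18–24 h at 37°C and read at OD 492 nm across three independent assays. MICs are expressed as the geometric mean over strains; selectivity index is MHC divided by that geometric mean.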

Gram-positive bacteria = test: Geometric mean of MIC and therapeutic index; format: cell-based; conditions: MHC/GM; 128 μm used when 50% hemolysis not observed at 128 μm
In short: as §2

all strains in Table 2 = test: Geometric mean of MIC and therapeutic index; format: cell-based; conditions: MHC/GM; 128 μm used when 50% hemolysis not observed at 128 μm
In short: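 Exponential-phase bacteria were diluted to 2 × 10^5 CFU/ml in MHB and mixed with an equal volume of peptide, giving final peptide 1–128 µM; 18–24 h at 37 °C, growth read at OD492, three independent assays. GM is the geometric mean of MICs across strains; SI = MHC/GM.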

E. coli 25922 [11] = format: cell-based, Escherichia coli; conditions: 25922, 4 h
Procedure: (§3) The salt and serum stability of polypeptides were determined by improved MIC method (Lv et al., [2014]). Peptides were incubated with BSA containing different final concentrations of salt ions (150 mM NaCl, 4.5 mM KCl, 6 μm NH4Cl, 8 μm ZnCl2, 1 mM MgCl2, 2 mM CaCl2, and 4 μm FeCl3) (Wang et al., [2018]). To determine the stability of the peptide in serum, peptide was incubated with different proportions of serum (50%, 100%) at 37°C for 4 h. The following steps are the same as those for antimicrobial activity. Each trial was conducted two times in parallel. A total of three independent assays were carried out.

S. aureus 29213 = format: cell-based, Staphylococcus aureus; conditions: 29213, 4 h
Procedure: as §3

[12] = tested on: IPEC-J2 and HEK 293T cells
Procedure: (§4) The cytotoxicity of each peptide was assessed with IPEC-J12 and HEK 293T cells. […] Each trial was conducted two times in parallel. A total of three independent assays were carried out.

[13] = tested on: hRBCs (human red blood cells); test: Hemolytic activity; conditions: three independent assays, two in parallel
Procedure: as §4

E. coli 25922 [14] = test: Drug resistance assessment (continuous culture at sub-MIC); format: cell-based, Escherichia coli; conditions: E. coli 25922, serial passage at sub-MIC
Procedure: Continuous culture method was used to evaluate the drug resistance of peptides. Colistin was used as model antibiotic to test the resistance of E. coli 25922. First, minimum inhibitory concentration (MIC) was determined for peptide and Colistin Next, the bacteria with each sub-MIC concentration were diluted to 2 × 10^5 CFU/ml with MHB for the MIC determination of the next passage. The process was repeated 30 times.

E. coli 25922 [15] = test: In vivo efficacy assay (peritonitis-sepsis model); conditions: C57BL/6 mice, i.p. E. coli 25922; peptide 5 mg/kg i.p. at 0 and 1 h, colistin 1 mg/kg; 12 h after infection; vs infected group, p < 0.05
Procedure: A total of 32 female C57BL/6 mice (weighing about 20 g) aged from 6 to 8 weeks were selected. The mice in each group were divided into 4 groups by blind method (n = 8): […] (d) treatment group (E. coli 25922 + Colistin). Mice in control group were intraperitoneally injected with 100 μl normal saline, and mice in other groups were intraperitoneally injected with 100 μl (~1 × 10^8 CFU/ml) diluted bacterial solution. The peptide treatment group was intraperitoneally injected with TP(i+4) 1&2&5 (5 mg/kg) at 0 and 1 h after infection, and the control group and antibiotic treatment group were injected with normal saline and colistin (1 mg/kg), respectively. The mice were then euthanized 12 h after infection. After weighing liver, lung, spleen, and kidney, the bacterial load of each organ was determined, and the histopathological changes in the organ sections were analyzed by H&E staining. Serum levels of inflammatory factors IL-6, IL-1β, and TNF-α were detected by ELISA kits (Shanghai Jinma).

Substance: ASVVKKLWKGVWKLLK-NH2 [TP(i+4) 1&2&5]
- MIC, E. faecalis 29212 [1]: 2 µM
- MIC, E. coli 25922 [2]: 1 µM
- MIC, E. coli UB1005 (Escherichia coli UB1005): 2 µM
- MIC, S. aureus 43300 [3]: 2 µM
- MIC, P. aeruginosa 27853 [4]: 2 µM
- MIC, P. aeruginosa PAO1 [5]: 2 µM
- MIC, S. typhimurium 14028 [6]: 2 µM
- MIC, S. typhimurium 7731 [7]: 4 µM
- MIC, S. aureus 25923 [8]: 2 µM
- MIC, S. aureus 29213 [9]: 2 µM
- MIC, S. epidermidis 12228 [10]: 2 µM
- Therapeutic index (TI), Gram-negative bacteria (Gram-negative bacteria): 64.00
- Therapeutic index (TI), Gram-positive bacteria (Gram-positive bacteria): 64.00
- Therapeutic index (TI) / selectivity index (SI), All (all strains in Table 2): 64.00
- MIC after incubation with 100% serum (E. coli 25922 [11]): 2 µM
- MIC in the presence of Ca2+ (E. coli 25922 [11]): 4 µM
- MIC in the presence of Fe3+ (E. coli 25922 [11]): 1 µM
- MIC in the presence of K+ (E. coli 25922 [11]): 2 µM
- MIC in the presence of Mg2+ (E. coli 25922 [11]): 2 µM
- MIC in the presence of NH4+ (E. coli 25922 [11]): 2 µM
- MIC in the presence of Na+ (E. coli 25922 [11]): 4 µM
- MIC in the presence of Zn2+ (E. coli 25922 [11]): 1 µM
- MIC, Control (E. coli 25922 [11]): 1 µM
- MIC after incubation with 100% serum (S. aureus 29213): 8 µM
- MIC in the presence of Ca2+ (S. aureus 29213): 2 µM
- MIC in the presence of Fe3+ (S. aureus 29213): 2 µM
- MIC in the presence of K+ (S. aureus 29213): 1 µM
- MIC in the presence of Mg2+ (S. aureus 29213): 2 µM
- MIC in the presence of NH4+ (S. aureus 29213): 2 µM
- MIC in the presence of Na+ (S. aureus 29213): 2 µM
- MIC in the presence of Zn2+ (S. aureus 29213): 1 µM
- MIC, Control (S. aureus 29213): 2 µM
- cell viability [12]: ~ 50%
- MHC (concentration of peptide that causes hemolysis of 50% of human red blood cells) [13]: >128 µM

Substance: Colistin
- generation at which resistance appeared (E. coli 25922 [14]): sixth generation
- increase in MIC values after 30 generations (E. coli 25922 [14]; 30 passages): 256 fold
- bacterial load in organs (liver, kidney, spleen, lungs) (E. coli 25922 [15]): significantly reduced
